Reference: ChEMBL document CHEMBL3352710, “Endoperoxide polyketides from a Chinese Plakortis simplex: further evidence of the impact of stereochemistry on antimalarial activity of simple 1,2-dioxanes” (Bioorg Med Chem, 2014)

Assays:
Plasmodium falciparum [1] = assay: Antimalarial activity against chloroquine-sensitive Plasmodium falciparum D10 after 72 hrs by lactate dehydrogenase assay; type: functional
Plasmodium falciparum [2] = assay: Antimalarial activity against chloroquine-resistant Plasmodium falciparum W2 after 72 hrs by lactate dehydrogenase assay; type: functional, organism-based; details: W2, 72 h
[3] = Plasmodium falciparum, D10, 72 h, read-out: IC50

Compound	IC50 (Plasmodium falciparum [1]; [3]) [µM]	IC50 (Plasmodium falciparum [2]) [µM]	IC50 (Plasmodium falciparum [1])
CCCC[C@H](CC)C[C@@]1(CC)C[C@H](CC)[C@H](CC(=O)OC)OO1	6.18	4.98	–
CC/C=C/[C@H](CC)C[C@]1(CC)C=C(CC)[C@H](CC(=O)OC)OO1	3.89	2.91	–
CCCC[C@H](CC)C[C@@]1(CC)C[C@H](CC)[C@@H](CC(=O)OC)OO1	–	11.4	Not Active
CCCCC(C)C[C@H](CC)C[C@@]1(C)C[C@H](CC)[C@@H](CC(=O)OC)OO1 (stereo not given in full)	5.12	4.1	–
CCCC[C@H](CC)C[C@@]1(C)C[C@@H](CC)[C@@H](CC(=O)OC)OO1	0.9	0.43	–
C[C@@H]1CC[C@H]2[C@@H](C)C(=O)O[C@@H]3O[C@@]4(C)CC[C@@H]1[C@]32OO4 [ARTEMISININ]	–	0.009	–
CCCC[C@H](C)C[C@]1(CC)C=C(CC)[C@H](CC(=O)OC)OO1	1.77	1.56	–
CCCC[C@H](CC)C[C@]1(CC)C=C(CC)[C@H](CC(=O)OC)OO1	4.05	2.7	–
